One may read the EC50 as the concentration that produces a half-maximal response.

Among the data in US12612409B2, “Pyrrolopyrimidines as CFTR potentiators” (Cystic Fibrosis Foundation, priority 2016, dated 2026) are EC50 values, retold here.

Assay [1] deals with T1, recombinant F508del V470 CFTR in Fischer rat thyroid (FRT) cells (Homo sapiens, UniProt P13569, DEL508-508).
T1 construct: expressed in transfected cells
The experiment in a line: FRT ion flux assay of F508del CFTR potentiation. The assay is classed as cell-based. Conditions: FRT cells expressing F508del V470 CFTR, forskolin 20 uM, 27° C. pre-incubation. The procedure, abridged:
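Potentiation read as YFP quench ~21 s after iodide buffer addition, as second/initial fluorescence ratio normalised between DMSO (0%) and reference potentiator (100%).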

Assay [2] deals with T2, CFTR in F508del/F508del primary CF hBE cells (Homo sapiens, UniProt P13569, DEL508-508).
T2 construct: Primary cystic fibrosis human bronchial epithelial (CF hBE) cells were expanded and cultured; endogenous in cells; host or cells: primary CF human bronchial epithelial cells, genotype F508del/F508del
T2 sequence (P13569 with tags, fused parts or gaps DEL508-508): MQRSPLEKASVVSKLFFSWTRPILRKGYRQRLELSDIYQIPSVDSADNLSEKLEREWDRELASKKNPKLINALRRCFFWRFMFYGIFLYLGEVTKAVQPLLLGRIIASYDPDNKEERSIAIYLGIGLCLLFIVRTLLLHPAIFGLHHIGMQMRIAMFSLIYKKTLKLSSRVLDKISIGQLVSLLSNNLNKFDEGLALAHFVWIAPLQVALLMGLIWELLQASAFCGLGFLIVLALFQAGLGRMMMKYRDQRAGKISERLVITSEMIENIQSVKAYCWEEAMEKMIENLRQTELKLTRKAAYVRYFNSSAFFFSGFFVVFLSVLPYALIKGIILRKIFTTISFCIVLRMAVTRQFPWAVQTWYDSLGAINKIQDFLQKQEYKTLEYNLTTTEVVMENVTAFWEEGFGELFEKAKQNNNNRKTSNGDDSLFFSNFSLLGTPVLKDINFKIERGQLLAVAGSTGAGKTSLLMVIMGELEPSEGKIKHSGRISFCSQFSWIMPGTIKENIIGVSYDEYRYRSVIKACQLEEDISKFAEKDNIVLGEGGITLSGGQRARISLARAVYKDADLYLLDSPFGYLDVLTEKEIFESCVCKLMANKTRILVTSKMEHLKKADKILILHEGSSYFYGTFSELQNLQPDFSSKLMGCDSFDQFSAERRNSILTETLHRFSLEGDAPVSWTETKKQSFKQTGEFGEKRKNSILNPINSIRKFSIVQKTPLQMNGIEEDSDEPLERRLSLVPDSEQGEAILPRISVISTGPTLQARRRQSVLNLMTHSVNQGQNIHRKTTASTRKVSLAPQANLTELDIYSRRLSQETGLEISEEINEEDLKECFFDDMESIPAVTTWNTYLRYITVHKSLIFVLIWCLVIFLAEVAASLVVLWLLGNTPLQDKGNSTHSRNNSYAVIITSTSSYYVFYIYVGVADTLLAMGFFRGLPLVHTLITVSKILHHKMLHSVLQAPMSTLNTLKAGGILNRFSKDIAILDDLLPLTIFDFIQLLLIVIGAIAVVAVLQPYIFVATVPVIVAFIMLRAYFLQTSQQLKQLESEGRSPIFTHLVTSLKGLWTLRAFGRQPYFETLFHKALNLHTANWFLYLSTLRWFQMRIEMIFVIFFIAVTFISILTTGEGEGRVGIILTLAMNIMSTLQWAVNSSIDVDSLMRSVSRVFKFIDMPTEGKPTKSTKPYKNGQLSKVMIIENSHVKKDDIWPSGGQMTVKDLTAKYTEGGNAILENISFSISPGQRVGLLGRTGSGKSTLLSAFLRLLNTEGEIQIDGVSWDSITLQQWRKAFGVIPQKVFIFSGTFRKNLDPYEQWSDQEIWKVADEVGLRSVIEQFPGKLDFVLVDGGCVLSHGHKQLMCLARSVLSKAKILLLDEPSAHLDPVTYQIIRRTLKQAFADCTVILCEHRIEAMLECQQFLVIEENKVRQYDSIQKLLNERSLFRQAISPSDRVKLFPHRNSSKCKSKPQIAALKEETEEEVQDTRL
Put plainly: Ussing chamber electrophysiology assay of CFTR potentiation in F508del/F508del CF bronchial epithelial cells (27° C.). In kind it is cell-based. The essentials: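 Short-circuit current was recorded under zero-voltage clamp across primary CF bronchial epithelia cultured >30 days at air/liquid interface, bathed apically and basolaterally in HEPES-buffered saline. Sequential additions: amiloride (30 uM), forskolin (10 uM), compound at 4 increasing levels, CFTRinh-172 (20 uM). Responses normalised between DMSO (0%) and maximal positive-control potentiator (100%).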

T1 sequence (P13569 with tags, fused parts or gaps DEL508-508): as above

`CCC(c1cn(-c2ccccc2F)nn1)n1cc(-c2cc(F)cnc2OC)c2c(N)ncnc21` (stereo not drawn) [Example 223, 7-{1-[1-(2-Fluorophenyl)-1H-1,2,3-triazol-4-yl]propyl}-5-(5-fluoro-2-methoxypyridin-3-yl)-7H-pyrrolo[2,3-d]pyrimidin-4-amine]: the values for the EC50 in assay [1] and in assay [2] were 11.1 nM and 7.23 nM, respectively.
For `CCC(c1cn(-c2ccccc2F)nn1)n1cc(-c2cnc(C(F)(F)F)nc2)c2c(N)ncnc21` (stereo not drawn) [Example 224, 7-{1-[1-(2-Fluorophenyl)-1H-1,2,3-triazol-4-yl]propyl}-5-[2-(trifluoromethyl)pyrimidin-5-yl]-7H-pyrrolo[2,3-d] pyrimidin-4-amine], in that order: 9.04 nM and 19 nM.
`CCC(c1cn(-c2ccccc2F)nn1)n1cc(-c2cnco2)c2c(N)ncnc21` (stereo not drawn) [Example 225, 7-{1-[1-(2-Fluorophenyl)-1H-1,2,3-triazol-4-yl]propyl}-5-(1,3-oxazol-5-yl)-7H-pyrrolo[2,3-d]pyrimidin-4-amine]: the EC50 in assay [1] was determined as 37.3 nM; in assay [2], 93.2 nM.
As for `CCC(c1cn(-c2ccccc2F)nn1)n1cc(C2CC2)c2c(N)ncnc21` (stereo not drawn) [Example 236, 5-cyclopropyl-7-{1-[1-(2-fluorophenyl)-1H-1,2,3-triazol-4-yl]propyl}-7H-pyrrolo[2,3-d]pyrimidin-4-amine], the values for the EC50 in assay [1] and in assay [2] were 56 nM and 38.8 nM, respectively.
For the molecule `CC(c1cn(-c2ccccc2F)nn1)n1cc(C2CC2)c2c(N)ncnc21` (stereo not drawn) [Example 238, 5-Cyclopropyl-7-{1-[1-(2-fluorophenyl)-1H-1,2,3-triazol-4-yl]ethyl}-7H-pyrrolo[2,3-d]pyrimidin-4-amine], the EC50 is 60.6 nM in assay [1] and 133 nM in assay [2].
Consider `CC(c1cn(-c2ccccc2F)nn1)n1cc(-c2ccc(C#N)c(F)c2)c2c(N)ncnc21` (stereo not drawn) [Example 239, 4-(4-Amino-7-{1-[1-(2-fluorophenyl)-1H-1,2,3-triazol-4-yl)ethyl]-7H-pyrrolo[2,3-d]pyrimidin-5-yl}-2-fluorobenzonitrile], for which the figures for the EC50 in assay [1] and in assay [2] were 94.4 nM and 83 nM, respectively.
For `CCC(c1cn(-c2cc(C(F)(F)F)ccn2)nn1)n1cc(-c2cncnc2OC)c2c(N)ncnc21` (stereo not drawn) [Example 242, 5-(4-Methoxypyrimidin-5-yl)-7-(1-{1-[4-(trifluoromethyl)pyridin-2-yl]-1H-1,2,3-triazol-4-yl]propyl}-7H-pyrrolo[2,3-d]pyrimidin-4-amine], the EC50 in assay [1] was 378 nM; in assay [2] it was 205 nM.
For `COc1ncncc1-c1cn(C(c2cn(-c3ccccc3F)nn2)C2CC2)c2ncnc(N)c12` (stereo not drawn) [Example 243, 7-{Cyclopropyl[1-(2-fluorophenyl)-1H-1,2,3-triazol-4-yl]methyl}-5-(4-methoxypyrimidin-5-yl)-7H-pyrrolo[2,3-d]pyrimidin-4-amine], in that order: 56.2 nM and 95.3 nM.
As for `CCC(c1cn(-c2ccccc2F)nn1)n1cc(-c2cncnc2OC)c2c(N)ncnc21` (stereo not drawn) [Example 244, 7-{1-[1-(2-Fluorophenyl)-1H-1,2,3-triazol-4-yl]propyl}-5-[4-methoxypyrimidin-5-yl]-7H-pyrrolo[2,3-d]pyrimidin-4-amine], the EC50 in assay [1] came out at 34.1 nM; in assay [2] it was 61.6 nM.
In the case of `CC(c1cn(-c2ccccc2F)nn1)n1cc(C2CCC2)c2c(N)ncnc21` (stereo not drawn) [Example 247, 5-Cyclobutyl-7-{1-[1-(2-fluorophenyl)-1H-1,2,3-triazol-4-yl]ethyl}-7H-pyrrolo[2,3-d]pyrimidin-4-amine], the figures for the EC50 in assay [1] and in assay [2] were 16.2 nM and 12.4 nM, respectively.
As for `CCC(c1cn(-c2ccccc2)nn1)n1cc(-c2cncnc2OC)c2c(N)ncnc21` (stereo not drawn) [Example 248, 5-(4-Methoxypyrimidin-5-yl)-7-{1-[1-phenyl-1H-1,2,3-triazol-4-yl]propyl}-7H-pyrrolo[2,3-d]pyrimidin-4-amine], the 50% effective concentration (EC50) in assay [1] is 25.9 nM; in assay [2], 55.4 nM.
`COc1nc(C(F)(F)F)ncc1-c1cn(C(C)c2cn(-c3ccccc3F)nn2)c2ncnc(N)c12` (stereo not drawn) [Example 249, 7-{1-[1-(2-Fluorophenyl)-1H-1,2,3-triazol-4-yl]ethyl}-5-[4-methoxy-2-(trifluoromethyl)pyrimidin-5-yl]-7H-pyrrolo[2,3-d]pyrimidin-4-amine]: the results for the EC50 in assay [1] and in assay [2] were 12.2 nM and 27.7 nM, respectively.
For `COc1nc(C(F)(F)F)ncc1-c1cn(Cc2cn(-c3ccccc3F)nn2)c2ncnc(N)c12` [Example 252, 7-{[1-(2-Fluorophenyl)-1H-1,2,3-triazol-4-yl]methyl}-5-[4-methoxy-2-(trifluoromethyl)pyrimidin-5-yl]-7H-pyrrolo[2,3-d]pyrimidin-4-amine], in that order: 27.6 nM and 23.9 nM.
`COc1ncccc1-c1cn(Cc2nnc(-c3ccccc3F)[nH]2)c2ncnc(N)c12` [Example 253, 7-{[5-(2-Fluorophenyl)-4H-1,2,4-triazol-3-yl]methyl}-5-(2-methoxypyridin-3-yl)-7H-pyrrolo[2,3-d]pyrimidin-4-amine]: the EC50 in assay [1] turned out to be 719 nM; in assay [2], 1340 nM.
With `CC(C)n1cc(Cn2cc(-c3ccc(Cl)cc3)c3c(N)ncnc32)cn1` [Example 254, 5-(4-Chlorophenyl)-7-{[1-(propan-2-yl)-1H-pyrazol-4-yl]methyl}-7H-pyrrolo[2,3-d]pyrimidin-4-amine], the values for the EC50 in assay [1] and in assay [2] were 422 nM and 140 nM, respectively.
For `CC(c1cn(CC2CCC2)nn1)n1cc(-c2ccc(Cl)cc2)c2c(N)ncnc21` (stereo not drawn) [Example 255, 5-(4-Chlorophenyl)-7-{1-[1-(cyclobutylmethyl)-1H-1,2,3-triazol-4-yl]ethyl}-7H-pyrrolo[2,3-d]pyrimidin-4-amine], the EC50 in assay [1] came to 259 nM; in assay [2], 64.7 nM.
Turning to `CC(C)(c1cn(-c2ccccc2F)nn1)n1cc(-c2ccc(Cl)cc2)c2c(N)ncnc21` [Example 256, 5-(4-Chlorophenyl)-7-{2-[1-(2-fluorophenyl)-1H-1,2,3-triazol-4-yl]propan-2-yl}-7H-pyrrolo[2,3-d]pyrimidin-4-amine], the EC50 was determined as 341 nM in assay [1] and 45 nM in assay [2].
For `Cc1c(-c2ccc(Cl)cc2)c2c(N)ncnc2n1C(C)c1cn(-c2ccccc2F)nn1` (stereo not drawn) [Example 257, 5-(4-Chlorophenyl)-7-{1-[1-(2-fluorophenyl)-1H-1,2,3-triazol-4-yl]ethyl}-6-methyl-7H-pyrrolo[2,3-d]pyrimidin-4-amine] the same measures were 289 nM and 38.3 nM.
For `CC(c1cc(-c2ccccc2F)no1)n1cc(-c2ccc(Cl)cc2)c2c(N)ncnc21` (stereo not drawn) [Example 258, 5-(4-Chlorophenyl)-7-{1-[3-(2-fluorophenyl)-1,2-oxazol-5-yl]ethyl}-7H-pyrrolo[2,3-d]pyrimidin-4-amine] the same measures were 343 nM and 147 nM.
For `Cc1c(-c2ccc(Cl)cc2)c2c(N)ncnc2n1C(C)c1cc(-c2ccccc2F)no1` (stereo not drawn) [Example 259, 5-(4-Chlorophenyl)-7-{1-[3-(2-fluorophenyl)-1,2-oxazol-5-yl]ethyl}-6-methyl-7H-pyrrolo[2,3-d]pyrimidin-4-amine], in that order: 206 nM and 52 nM.
On to `COc1ccccc1-c1cc(C(C)n2cc(-c3ccc(Cl)cc3)c3c(N)ncnc32)on1` (stereo not drawn) [Example 260, 5-(4-Chlorophenyl)-7-{1-[3-(2-methoxyphenyl)-1,2-oxazol-5-yl]ethyl}-7H-pyrrolo[2,3-d]pyrimidin-4-amine], for which the EC50 in assay [1] came out at 197 nM; in assay [2], 110 nM.
